Values of other authors as cited in US20100151572A1, “ANTI-TUMORAL COMPOSITIONS METHODS” (priority 2005, published 2010).

Columns and labels:
E. coli PNP = E. coli PNP (Escherichia coli, UniProt P0ABP8); conditions: abrogates E. coli PNP activity; cited from earlier work
human enzyme (PNP) = target: T1, human enzyme (PNP) (Homo sapiens, UniProt P00491); conditions: cited from earlier work
T1 sequence (P00491 1-289): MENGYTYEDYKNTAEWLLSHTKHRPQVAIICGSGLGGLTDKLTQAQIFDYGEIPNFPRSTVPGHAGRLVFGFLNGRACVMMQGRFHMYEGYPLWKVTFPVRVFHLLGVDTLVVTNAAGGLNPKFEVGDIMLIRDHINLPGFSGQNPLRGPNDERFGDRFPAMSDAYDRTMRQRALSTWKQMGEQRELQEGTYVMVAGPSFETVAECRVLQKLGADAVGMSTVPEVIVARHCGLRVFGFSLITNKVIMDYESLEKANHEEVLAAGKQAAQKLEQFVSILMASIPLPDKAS

Sequence of E. coli PNP (P0ABP8 whole entry): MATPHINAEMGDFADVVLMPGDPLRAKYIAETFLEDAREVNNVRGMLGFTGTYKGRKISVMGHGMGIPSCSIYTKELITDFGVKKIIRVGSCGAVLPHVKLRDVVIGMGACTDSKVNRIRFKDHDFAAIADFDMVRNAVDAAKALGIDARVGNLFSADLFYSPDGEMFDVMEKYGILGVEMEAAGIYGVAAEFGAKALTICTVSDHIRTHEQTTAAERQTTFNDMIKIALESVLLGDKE

For `Nc1ncnc2c([C@@H]3O[C@H](CO)[C@@H](O)[C@H]3O)[nH]nc12` [Formycin A], the Ki (E. coli PNP) is given as 5 µM and the “activity against the human enzyme” value (human enzyme (PNP)) is given as “inactive”.
